Experiments:
[1] = system: HIV-1 strain IIIB; test: Retrovirucidal effect on HIV-1 strain IIIB (Table 3); assay type: cell-based
Procedure: (§1) HIV-1 viral suspensions were obtained by coculture of MT4 cells and H9 cells chronically infected by HIV-ILai isolate. 200 μl of a cell supernatant containing viral particles (HIV-ILai: 100 TCID50) were incubated at room temperature with various concentrations of different inhibitors. After 3 hours, virions were washed through 0.02 μm anopore membrane in 1.5 mL Vectaspin tube (Whatman) for 10 minutes at 5 000 g. Each of the three subsequent washes was performed in the same conditions after the viral concentrate was refilled with 500 μL of RPMI medium. Then, the viral concentrate was readjusted to the initial volume with RPMI plus 10% foetal calf serum (FCS). The residual infectivity was assayed on P4 cells as described by CHARNEAU et al. (1994, J. Mol. Biol., 241, 651-662). Briefly, P4 cells were plated using 100 μL of DMEM medium plus 10% FCS in 96 plate multi-wells at 20×10^5 cells per mL. After overnight incubation at 37° C., the supernatant was discarded and the viral preparation (200 μL) was added. One day later the wells were washed three times in PBS. Each well was refilled with 200 μL of a reaction buffer containing 50 mM Tris-HCl pH 8.5, 100 mM 2-mercaptoethanol, 0.05% Triton X-100 and 5 mM 4-methylumbelliferyl β-D-galactopyranoside (MUG). After 3 hours at 37° C., the level of the reaction was measured in a fluorescence microplate reader.
(§2) The retrovirucidal effect of each pyridinone derivative listed in table 3 has been assayed according to the teachings of example 2, excepted that the anti-viral effect has been tested on the two following HIV-1 strains:
a) HIV-1 strain IIIB (see example 2);

[2] = system: HIV-1 strain 103 N; test: Retrovirucidal effect on HIV-1 strain 103 N (Table 3); assay type: cell-based; settings: HIV-1 strain 103N (RT Lys-103 to Asn mutant); pIC50=-log IC50, IC50 in M
Procedure: as §1, §2
b) HIV-1 strain 103 N which is a mutant strain bearing a point mutation in the reverse transcriptase gene leading to an enzyme wherein the initial Lys-103 residue is replaced for a Asn residue.
The HIV-1 103 N strain has also been described by SAHLBERG et al.,(1998, Antiviral Res., 37 (3): ASS) and BALZARiNI et al. (1996, Antimicrobial Agents and Chemotherapy, 40 (6): 1454-1466).

[3] = retrovirucidal effect, pIC50=-log IC50 (M)

Row | Structure (SMILES) | HIV1 pIC50 (pIC50=−log IC50) [1] | HIV1 pIC50 strain IIIB ([1]; pIC50=-log IC50, IC50 in M) | HIV1 pIC50 strain 103N [2] | HIV1 pIC50 strain IIIB [1, 3]
1 | CCc1c(C)[nH]c(=O)c(N)c1Sc1cc(C)cc(C)c1 [Compound 1] | 7,6999 | 7.699 | 6.671 | 
2 | CCc1c(C)[nH]c(=O)c(N)c1C(=O)c1cc(C)cc(C)c1 [Compound 2] |  | 6.612 | 6.64 | 
3 | CCc1c(C)[nH]c(=O)c(N(C)C)c1Cc1cc(C)cc(C)c1 [Compound 3] |  | 8.004 | 7.438 | 
4 | CCc1c(C)[nH]c(=O)c(NCc2cc(C)c(C)cc2OC)c1Cc1cc(C)cc(C)c1 [Compound 4] |  | 5.094 | <4 | 
5 | CCc1c(C)[nH]c(=O)c(N)c1Cc1cc(C)cc(C)c1 [Compound 5] |  | 6.261 | 5.636 | 
6 | CCc1c(C)[nH]c(=O)c(N)c1C(O)c1cc(C)cc(C)c1 (centres unmarked) [Compound 6] |  | 5.795 | 5.026 | 
7 | CCc1c(C)[nH]c(=O)c(N)c1Cc1ccc2ccccc2c1 [Compound 7] |  | <4 | <4 | 
8 | CCc1c(C)[nH]c(=O)c(N)c1Cc1ccc(C)cc1 [Compound 8] |  | 4.373 | 4.39 | 
9 | CCc1c(C)[nH]c(=O)c(N)c1Cc1cccc(C)c1 [Compound 9] |  | 5.373 | 5.103 | 
10 | CCc1c(C)[nH]c(=O)c(N(C)C)c1Cc1ccc2ccccc2c1 [Compound 10] |  | 6.241 | 4.389 | 
11 | CCc1c(Cc2cc(C)cc(C)c2)c(N(C)C)c(=O)n(C)c1C [Compound 11] |  | 7.215 | 6.094 | 
12 | CCc1c(C)[nH]c(=O)c(N(CC)CC)c1Cc1cc(C)cc(C)c1 [Compound 12] |  | 8.022 | 6.363 | 
13 | CCc1c(C)[nH]c(=O)c(N(C)C)c1Cc1cccc(C)c1 [Compound 13] |  | 8.824 | 7.622 | 
14 | CCc1c(C)[nH]c(=O)c(N(C)C)c1Cc1ccccc1C [Compound 14] |  | 7.676 | 5.849 | 
15 | Cc1cc(C)cc(Cc2cc[nH]c(=O)c2N)c1 [Compound 15] |  | <4.17 | 4.138 | 
16 | Cc1cc(C)cc(Cc2cc[nH]c(=O)c2N(C)C)c1 [Compound 16] |  | 5.061 | 4.401 | 
17 | CCCN(CCC)c1c(Cc2cc(C)cc(C)c2)c(CC)c(C)[nH]c1=O [Compound 17] |  | 6.285 | 4.379 | 
18 | CCc1c(C)[nH]c(=O)c(N(C)C)c1Cc1ccc(C)cc1 [Compound 18] |  | 6.454 | 4.895 | 
19 | CCc1c(C)[nH]c(=O)c(N(C)C)c1Cc1ccc(C)c(C)c1 [Compound 19] |  | 7.447 | 5.947 | 
20 | CCc1c(C)[nH]c(=O)c(N(C)C)c1Cc1cccc(C)c1C [Compound 20] |  | 6.926 | 5.585 | 
21 | CCc1c(C)[nH]c(=O)c(N(C)C)c1Cc1ccccc1 [Compound 21] |  | 8.409 | 6.65 | 
22 | CCc1c(Cc2cc(C)cc(C)c2)c(N(C)C)c(=O)n(Cc2ccccc2)c1C [Compound 22] |  | 4.603 | <4 | 
23 | CCOC(=O)Cn1c(C)c(CC)c(Cc2cc(C)cc(C)c2)c(N(C)C)c1=O [Compound 23] |  | 5.254 | <4 | 
24 | CCCCN(CCCC)c1c(Cc2cc(C)cc(C)c2)c(CC)c(C)[nH]c1=O [Compound 24] |  | 4.262 | <4 | 
25 | CCc1c(C)[nH]c(=O)c(N(Cc2ccccc2)Cc2ccccc2)c1Cc1cc(C)cc(C)c1 [Compound 25] |  | <4 | 4.259 | 
26 | CCc1[nH]c(=O)c(N)c(Cc2cc(C)cc(C)c2)c1C [Compound 27] |  | 5.949 | 5.098 | 
27 | Cc1cccc(C(=O)c2c3c([nH]c(=O)c2N)CCC3)c1 [Compound 142] |  | 4.889 |  | 

Row | Structure (SMILES) | HIV1 pIC50 (pIC50=−log IC50) [1] | HIV1 pIC50 strain IIIB ([1]; pIC50=-log IC50, IC50 in M) | HIV1 pIC50 strain 103N [2] | HIV1 pIC50 strain IIIB [1, 3]
28 | CCc1c(C)[nH]c(=O)c(N(C)C)c1C(=O)c1cccc(COc2ccccc2)c1 [Compound 143] |  | 7.421 |  | 
29 | CCc1c(C)[nH]c(=O)c(N(C)CCOCc2ccccc2)c1Cc1cccc(C)c1 [Compound 144] |  | 6.446 |  | 
30 | CCc1c(C)[nH]c(=O)c(N(C)C)c1Cc1ccc2c(c1)OCO2 [Compound 147] |  | 7.721 |  | 
31 | Cc1cccc(C(=O)c2c3c([nH]c(=O)c2N(C)C)CCC3)c1 [Compound 148] |  | 7.863 |  | 
32 | CCc1c(C)[nH]c(=O)c(N)c1C(=O)c1ccc2c(c1)OCO2 [Compound 150] |  | 4.881 |  | 
33 | CCc1c(C)[nH]c(=O)c(N(C)C)c1C(=O)c1ccc2c(c1)OCO2 [Compound 151] |  | 7.845 |  | 
34 | CCc1c(Cc2cc(C)cc(C)c2)c(N(C)C)c(=O)n(-c2ccccc2)c1C [Compound 152] |  | 4.21 |  | 
35 | CCc1c(Cc2cc(C)cc(C)c2)c(N(C)C)c(=O)n(N)c1C [Compound 153] |  | 6.749 |  | 
36 | CCc1c(C)[nH]c(=O)c(N(C)CCC(C)C)c1Cc1cccc(C)c1 [Compound 155] |  | 7.514 |  | 
37 | CCc1c(C)[nH]c(=O)c(N)c1Cc1ccc(OC)c(C)c1 [Compound 156] |  | 4.934 |  | 
38 | CCc1c(C)[nH]c(=O)c(N(C)C)c1Cc1ccc(OC)c(C)c1 [Compound 157] |  | 6.413 |  | 
39 | CCc1c(C)[nH]c(=O)c(N)c1Sc1cccc(C)c1 [Compound 159] |  | 7.011 |  | 
40 | CCc1c(C)[nH]c(=O)c(N(CCOC)CCOC)c1Cc1cccc(C)c1 [Compound 180] |  | 5.988 |  | 
41 | CCOc1cccc(Cc2c(CC)c(C)[nH]c(=O)c2N(C)C)c1 [Compound 181] |  | 7.928 |  | 
42 | CCc1c(C)[nH]c(=O)c(N)c1C(=O)c1cc(F)cc(C(F)(F)F)c1 [Compound 182] |  | 5.933 |  | 
43 | CCc1c(C)[nH]c(=O)c(N(C)C)c1C(=O)c1cc(F)cc(C(F)(F)F)c1 [Compound 183] |  | 8.481 |  | 
44 | CCc1c(C)[nH]c(=O)c(N)c1C(=O)c1cc(Br)cs1 [Compound 186] |  | 5.781 |  | 
45 | CCc1c(C)[nH]c(=O)c(N)c1Sc1cccc(Br)c1 [Compound 188] |  | 7.063 |  | 
46 | CCc1c(C)[nH]c(=O)c(N)c1Cc1cc(Cl)cc(Cl)c1 [Compound 189] |  | 6.401 |  | 
47 | CCc1c(C)[nH]c(=O)c(N)c1C(=O)c1cc(Cl)cc(Cl)c1 [Compound 190] |  | 7.757 |  | 
48 | CCc1c(C)[nH]c(=O)c(N)c1C(=O)c1ccc(Br)s1 [Compound 194] |  | 4.665 |  | 
49 | CCc1c(C)[nH]c(=O)c(N(C)C)c1C(=O)c1cccc(-c2ccccc2)c1 [Compound 196] |  | 6.411 |  | 
50 | CCc1c(C)[nH]c(=O)c(N)c1Oc1cc(C)cc(C)c1 [Compound 197] |  |  |  | 7.307
51 | Cc1c[nH]c(=O)c(N)c1SCc1ccccc1 [Compound 198] |  |  |  | 4.457
52 | CCc1c(C)[nH]c(=O)c(N)c1Cc1ccccc1Br [Compound 202] |  |  |  | 5.715
53 | CCc1c(C)[nH]c(=O)c(N(C)C)c1Cc1ccccc1Br [Compound 203] |  |  |  | 8.161

Source: patent US6683079B2, “3-(amino-or aminoalkyl) pyridinone derivatives and their use for the treatment of HIV related diseases” (Centre National de la Recherche Scientifique, priority 1998, dated 2004)
